Laboratory results from patent US20110166109A1, “Synergistic Active Compound Combinations Comprising Phenyltriazoles” (Bayer CropScience AG, priority 2009, published 2011).
Where two headings read alike, the source gives them in different places.

Key:
Format in all cases: in vivo
Tetranychus urticae = assay: Tetranychus test (OP-resistant/spray treatment), bean leaf discs
Description: (§1) To produce a suitable preparation of active compound, 1 part by weight of active compound is mixed with the stated amounts of solvent and emulsifier, and the concentrate is diluted with emulsifier-containing water to the desired concentration.
Discs of bean leaves (Phaseolus vulgaris) which are infested by all stages of the greenhouse red spidermite (Tetranychus urticae) are sprayed with an active compound preparation of the desired concentration.
After the desired period of time, the effect in % is determined. 100% means that all spider mites have been killed; 0% means that none of the spider mites have been killed.

Spodoptera frugiperda = Spodoptera frugiperda larvae test (sprayed cabbage leaves); details: applied individually
Description: as §1
Cabbage leaves (Brassica okracea) are treated by being sprayed with the preparation of active compound of the desired concentration and are populated with larvae of the armyworm (Spodoptera frugiperda) while the leaves are still moist.
After the desired period of time, the kill in % is determined. 100% means that all caterpillars have been killed; 0% means that none of the caterpillars have been killed. The kill rates determined are entered into Colby's formula.

Phaedon cochleariae = Phaedon cochleariae larvae test (treated cabbage leaves); details: applied individually; for pest or weed control at 500 g/ha / pest or weed control at 100 g/ha / pest or weed control at 200 g/ha: Phaedon cochleariae, 144 h, after 6 d, read-out: Kill in % after 6d
Myzus persicae = Myzus persicae test (spray treatment of infested cabbage leaves); details: applied individually
Description: as §1
Cabbage leaves (Brassica oleracea) which are heavily infested by the green peach aphid (Myzus persicae) are treated by spraying with the active compound preparation of the desired concentration.
After the desired period of time, the kill in % is determined. 100% means that all of the aphids have been destroyed; 0% means that none of the aphids have been destroyed. The kill rates determined are entered into Colby's formula.

[1] = Tetranychus urticae, foliar, 144 h, read-out: Kill in % after 6d
[2] = Tetranychus urticae, foliar, 144 h, 500 g/ha, after 6 d, applied individually, read-out: Kill in % after 6d

With `OC(Cc1ccccc1Cl)(Cn1ncnc1S)C1(Cl)CC1` (centres unmarked) [prothioconazole] the pest or weed control at 200 g/ha (Tetranychus urticae; [1]) was 0%, the “Kill in % after 6d” value (Spodoptera frugiperda; 500 g/ha) was 0% and the pest or weed control at 500 g/ha (Phaedon cochleariae; 500 g/ha) was 0%.
In the case of `Cc1cc(C)c([S+]([O-])CC(F)(F)F)cc1-n1cnc(C(F)(F)F)n1` (centres unmarked) [(I-1)], the “Kill in % after 1d” value (Tetranychus urticae; 0.16 g/ha, applied individually) is reported as 0%, the pest or weed control at 0.16 g/ha (Tetranychus urticae; Tetranychus urticae, foliar, 144 h, 0.16 g/ha, after 6 d, applied individually, read-out: Kill in % after 6d) is reported as 0% and the pest or weed control at 0.8 g/ha (Tetranychus urticae; Tetranychus urticae, foliar, 144 h, 0.8 g/ha, after 6 d, applied individually, read-out: Kill in % after 6d) is reported as 60%. The “Kill in % after 6d” value (Myzus persicae; 20 g/ha) was 0% and the pest or weed control at 100 g/ha (Phaedon cochleariae) was 0%.
With `O=C(Nc1ccccc1)N(Cc1ccc(Cl)cc1)C1CCCC1` [pencycuron] the pest or weed control at 500 g/ha (Phaedon cochleariae; 500 g/ha) was 0%.
For `CC(C)(C)C(O)(CCc1ccc(Cl)cc1)Cn1cncn1` (centres unmarked) [tebuconazole], the pest or weed control at 200 g/ha (Tetranychus urticae; [1]) was 0%, the “Kill in % after 6d” value (Spodoptera frugiperda; 500 g/ha) was 0% and the pest or weed control at 500 g/ha (Phaedon cochleariae; 500 g/ha) was 0%.
In the case of `N#Cc1c[nH]cc1-c1cccc2c1OC(F)(F)O2` [fludioxonil], the pest or weed control at 200 g/ha (Tetranychus urticae; [1]) is reported as 0% and the pest or weed control at 200 g/ha (Phaedon cochleariae) is reported as 33%.
For `N#Cc1ccccc1NC(=O)c1snc(Cl)c1Cl` [isotianil], the pest or weed control at 500 g/ha (Phaedon cochleariae; 500 g/ha) was 0%.
`CNC(=O)/C(=N/OC)c1ccccc1Oc1ccccc1` [metominostrobin] showed a pest or weed control at 500 g/ha (Tetranychus urticae; [1]) of 0%.
Molecule `CC(C)(C)C(O)C(Oc1ccc(-c2ccccc2)cc1)n1cncn1` (centres unmarked) [bitertanol] has a pest or weed control at 500 g/ha (Phaedon cochleariae; 500 g/ha) of 0%.
For `CCCN(CC)CC1COC2(CCC(C(C)(C)C)CC2)O1` (centres unmarked) [spiroxamine], the pest or weed control at 200 g/ha (Tetranychus urticae; [1]) was 0%.
`CCC1(C(=O)NC(C)c2ccc(Cl)cc2)C(C)C1(Cl)Cl` (centres unmarked) [carpropamid] was tested, and the “Kill in % after 6d” value (Spodoptera frugiperda; 500 g/ha) was 0% and the pest or weed control at 500 g/ha (Phaedon cochleariae; 500 g/ha) was 0%.
`CC(C)(C)C(O)C(Oc1ccc(Cl)cc1)n1cncn1` (centres unmarked) [triadimenol] was tested, and the pest or weed control at 200 g/ha (Tetranychus urticae; [1]) was 0%, the “Kill in % after 6d” value (Spodoptera frugiperda; 500 g/ha) was 0% and the pest or weed control at 500 g/ha (Phaedon cochleariae; 500 g/ha) was 0%.
In the case of `CO/N=C(/C(=O)OC)c1ccccc1CO/N=C(\C)c1cccc(C(F)(F)F)c1` [trifloxystrobin], the pest or weed control at 500 g/ha (Tetranychus urticae; [1]) is reported as 0%, the “Kill in % after 1d” value (Myzus persicae; 500 g/ha) is reported as 70% and the pest or weed control at 200 g/ha (Phaedon cochleariae) is reported as 17%. For the same molecule, the pest or weed control at 500 g/ha (Phaedon cochleariae; 500 g/ha) was 0%.
`CO/C=C(/C(=O)OC)c1ccccc1Oc1cc(Oc2ccccc2C#N)ncn1` [azoxystrobin] was tested, and the pest or weed control at 500 g/ha (Phaedon cochleariae; 500 g/ha) was 17%.
For `Cn1cc(C(=O)Nc2ccc(F)cc2-c2ccc(Cl)c(Cl)c2)c(C(F)F)n1` [bixafen, N-(3′,4′-dichloro-5-fluoro[1,1′-biphenyl]-2-yl)-3-(difluoromethyl)-1-methyl-1H-pyrazole-4-carboxamide], the “Kill in % after 1d” value (Tetranychus urticae; 200 g/ha, applied individually) was 0% and the pest or weed control at 500 g/ha (Phaedon cochleariae; 500 g/ha) was 0%.
Work on `CO/N=C(/C1=NOCCO1)c1ccccc1Oc1ncnc(Oc2ccccc2Cl)c1F` [fluoxastrobin] yielded a pest or weed control at 500 g/ha (Tetranychus urticae; [1]) of 0% and a pest or weed control at 500 g/ha (Phaedon cochleariae; 500 g/ha) of 33%.
In the case of `CCCOC(=O)NCCCN(C)C` [propamocarb], the “Kill in % after 1d” value (Tetranychus urticae; 500 g/ha, applied individually) is reported as 0%, the pest or weed control at 500 g/ha (Tetranychus urticae; [2]) is reported as 0% and the pest or weed control at 200 g/ha (Phaedon cochleariae) is reported as 17%.
Molecule `O=c1c2cc(F)ccc2nc(-n2cncn2)n1-c1ccc(Cl)cc1Cl` [fluquincoazole, fluquinconazole] has a pest or weed control at 500 g/ha (Tetranychus urticae; [1]) of 0% and a pest or weed control at 500 g/ha (Phaedon cochleariae; 500 g/ha) of 17%.
For `COC(=O)Nc1nc2ccccc2[nH]1` [carbendazim], the “Kill in % after 6d” value (Myzus persicae; 500 g/ha) was 20%.
`O=C(NCCc1ncc(C(F)(F)F)cc1Cl)c1ccccc1C(F)(F)F` [fluopyram, N-[2-[3-chloro-5-(trifluoromethyl)-2-pyridinyl]ethyl]-2-(trifluoromethyl)benzamide] was tested, and the pest or weed control at 500 g/ha (Tetranychus urticae; [1]) was 0%, the “Kill in % after 6d” value (Spodoptera frugiperda; 500 g/ha) was 0% and the pest or weed control at 500 g/ha (Phaedon cochleariae; 500 g/ha) was 0%.
With `O=C(NCc1ncc(C(F)(F)F)cc1Cl)c1c(Cl)cccc1Cl` [fluopicolide, fluopicolid] the pest or weed control at 500 g/ha (Tetranychus urticae; [2]) was 0%, the “Kill in % after 6d” value (Phaedon cochleariae; 500 g/ha) was 0% and the pest or weed control at 500 g/ha (Phaedon cochleariae; 500 g/ha) was 0%.
`Cc1ccc(N(SC(F)(Cl)Cl)S(=O)(=O)N(C)C)cc1` [tolyfluanid, tolylfluanid] was tested, and the pest or weed control at 500 g/ha (Phaedon cochleariae; 500 g/ha) was 0%.
In the case of `CSC1=N[C@@](C)(c2ccccc2)C(=O)N1Nc1ccccc1` [fenamidone], the pest or weed control at 500 g/ha (Tetranychus urticae; [1]) is reported as 0%, the “Kill in % after 6d” value (Spodoptera frugiperda; 500 g/ha) is reported as 0% and the pest or weed control at 500 g/ha (Phaedon cochleariae; 500 g/ha) is reported as 0%.
In the case of `Cc1nn(C)c(F)c1C(=O)Nc1ccccc1C(C)CC(C)C` (centres unmarked) [(6-18), N-[2-(1,3-dimethylbutyl)phenyl]-5-fluoro-1,3-dimethyl-1H-pyrazole-4-carboxamide], the “Kill in % after 1d” value (Tetranychus urticae; 500 g/ha, applied individually) is reported as 0%, the pest or weed control at 500 g/ha (Tetranychus urticae; [2]) is reported as 0% and the pest or weed control at 500 g/ha (Phaedon cochleariae; 500 g/ha) is reported as 0%.
`CC(C)C1CCC(Cc2ccc(Cl)cc2)C1(O)Cn1cncn1` (centres unmarked) [ipconazole] gave a pest or weed control at 500 g/ha (Phaedon cochleariae; 500 g/ha) of 0%.
For `Cc1cc(F)c(-n2nc(C(F)(F)F)nc2N)cc1[S+]([O-])CC(F)(F)F` (centres unmarked) [compound (I-4)], the pest or weed control at 4 g/ha (Tetranychus urticae; Tetranychus urticae, foliar, 144 h, 4 g/ha, after 6 d, applied individually, read-out: Kill in % after 6d) was 70%, the pest or weed control at 20 g/ha (Tetranychus urticae; Tetranychus urticae, foliar, 144 h, 20 g/ha, after 6 d, applied individually, read-out: Kill in % after 6d) was 80% and the “Kill in % after 1d” value (Myzus persicae; 100 g/ha) was 0%. For the same molecule, the “Kill in % after 6d” value (Spodoptera frugiperda; 100 g/ha) was 0% and the pest or weed control at 100 g/ha (Phaedon cochleariae) was 0%.
For `COCC(=O)N(c1c(C)cccc1C)C(C)C(=O)OC` (centres unmarked) [metalaxyl], the “Kill in % after 1d” value (Tetranychus urticae; 500 g/ha, applied individually) was 0% and the pest or weed control at 500 g/ha (Tetranychus urticae; [1]) was 0%.
